Measured values as given in PMC7578299, “The antiviral effects of baloxavir marboxil against influenza A virus infection in ferrets” (Influenza and Other Respiratory Viruses, 2020).
Values joined by “and” are separate entries in the source; they are usually repeats but may differ in a detail not shown here. Equal entries are not always repeated. Where two headings read alike, the source gives them in different places.

Columns and labels:
[1] = Stability in plasma, ferret; type: in vitro ADME; settings: for % Residual in plasma: BXM 200 ng/mL, 37°C, mean of duplicate; for % Residual in plasma Individual value: BXM, duplicates
Procedure: (§1) Approximately 30 mL of blood from Japanese male healthy volunteers was collected and centrifuged to obtain plasma. Blood samples from ferrets, rats, dogs, and monkeys were collected under anesthesia and centrifuged to obtain plasma. BXM was added to reach a final concentration of 200 ng/mL to all pooled plasma samples per species. After incubation for 5, 15, and 30 minutes at 37°C, twofold volume of ice‐cold acetonitrile/methanol (1:1, v/v) was added to the plasma samples to stop further reactions, which were then centrifuged at 1800 g for 10 minutes prior to LC‐MS/MS analysis of BXM in the supernatants.

[2] = Stability in plasma, human; type: in vitro ADME; settings: for % Residual in plasma: BXM 200 ng/mL, 37°C, mean of duplicate; for % Residual in plasma Individual value: BXM, duplicates
Procedure: as §1

[3] = Metabolic stability in liver microsomes, monkey; type: in vitro ADME; settings: monkey; for % Residual in liver microsome: 0.5 mg/mL, 2 μmol/L, 37°C, mean of duplicates; for % Residual in liver microsome Individual value: duplicates
Procedure: (§2) Liver microsomes were prepared from ferrets, rats, dogs, and monkeys, as previously described. ^28 Human liver microsomes were obtained from Sekisui‐XenoTech, LLC and pooled (n = 15). Metabolic stability of the compounds in liver microsomes was tested in duplicate. Oseltamivir and cefcapene pivoxil were used as reference compounds. Liver microsomes at 0.5 mg/mL concentration (final volume of 0.2 mL) were incubated in Tris‐HCl buffer (pH 7.4), containing 50 mmol/L Tris‐HCl, 150 mmol/L KCl, 10 mmol/L MgCl2. The hydrolysis reaction was initiated by applying the test compound solution (final concentration 2 μmol/L). After incubation for 10, 20, and 30 minutes at 37°C, the hydrolysis was terminated by the addition of twofold volume of ice‐cold acetonitrile/methanol (1:1, v/v). Samples were centrifuged at 3000 rpm for 10 minutes prior to LC‐MS/MS analysis of compounds in the supernatants.

[4] = Pharmacokinetic analysis in ferrets after a single oral administration of BXM; type: in vivo, ferret; settings: for concentration at 24 h: ferret, oral, read-out: C 24 h; for concentration at 24 h / AUC(0-t) / Cmax / Tmax: plasma; for AUC(0-t) / Cmax / Tmax: po
Procedure: One day prior to administration, group assignment was carried out taking body weight into account. Under isoflurane anesthesia, fasted ferrets (four per group) received BXM (10 or 30 mg/5 mL/kg) suspension orally using an intragastric tube. Blood samples were collected at 0.5, 1, 2, 4, 6, 8, and 24 hours after single oral administration of BXM and centrifuged to obtain plasma. The concentrations of BXA and BXM in plasma were determined by liquid chromatography‐tandem mass spectrometry (LC‐MS/MS). The lower limit of quantification of BXA and BXM in ferret plasma was 0.5 ng/mL. The pharmacokinetic parameters of BXA and BXM were calculated using non‐compartmental analysis module in Phoenix WinNonlin software (version 8.0; Certara LP) (https://onlinehelp.certara.com/phoenix/8.2/topics/nca.htm) based on a non‐compartment model analysis with uniform weighting.

[5] = Metabolic stability in liver microsomes, dog; type: in vitro ADME; settings: for % Residual in liver microsome: 0.5 mg/mL, 2 μmol/L, 37°C, mean of duplicates; for % Residual in liver microsome Individual value: duplicates
Procedure: as §2

Stability in plasma, dog = type: in vitro ADME; settings: for % Residual in plasma: BXM 200 ng/mL, 37°C, mean of duplicate; for % Residual in plasma Individual value: BXM, duplicates
Procedure: as §1

[6] = Metabolic stability in liver microsomes, ferret; type: in vitro ADME; settings: for % Residual in liver microsome / % Residual in liver microsome Individual value: ferret; for % Residual in liver microsome: 0.5 mg/mL, 2 μmol/L, 37°C, mean of duplicates; for % Residual in liver microsome Individual value: duplicates
Procedure: as §2

[7] = Stability in plasma, monkey; type: in vitro ADME; settings: for % Residual in plasma: BXM 200 ng/mL, 37°C, mean of duplicate; for % Residual in plasma Individual value: BXM, duplicates
Procedure: as §1

[8] = system: cap-dependent endonuclease (CEN); design: method as in PMID 30316915; settings: in vitro studies; cited from earlier work
Stability in plasma, rat = type: in vitro ADME; settings: for % Residual in plasma: BXM 200 ng/mL, 37°C, mean of duplicate; for % Residual in plasma Individual value: BXM, duplicates
Procedure: as §1

[9] = Metabolic stability in liver microsomes, rat; type: in vitro ADME; settings: for % Residual in liver microsome: 0.5 mg/mL, 2 μmol/L, 37°C, mean of duplicates; for % Residual in liver microsome Individual value: duplicates
Procedure: as §2

[10] = single oral BXM 10 mg/kg, individual ferrets (Ferret-01 to Ferret-04)
[11] = single oral BXM 30 mg/kg, individual ferrets (Ferret-05 to Ferret-08)

SMILES: COC(=O)OCOc1c2n(ccc1=O)N([C@@H]1c3ccccc3SCc3c1ccc(F)c3F)[C@@H]1COCCN1C2=O [BXM, Baloxavir marboxil]
- % Residual in plasma ([1]; 10 min): 94.7%
- % Residual in plasma ([1]; 20 min): 90.4%
- % Residual in plasma ([1]; 30 min): 77.4%
- % Residual in plasma Individual value ([1]; 10 minutes): 94.0% and 95.4%
- % Residual in plasma Individual value ([1]; 20 minutes): 90.0% and 90.9%
- % Residual in plasma Individual value ([1]; 30 minutes): 77.3% and 77.5%
- % Residual in plasma ([2]; 10 min): 92.3%
- % Residual in plasma ([2]; 20 min): 78.6%
- % Residual in plasma ([2]; 30 min): 63.9%
- % Residual in plasma Individual value ([2]; 10 minutes): 92.7% and 91.8%
- % Residual in plasma Individual value ([2]; 20 minutes): 80.0% and 77.1%
- % Residual in plasma Individual value ([2]; 30 minutes): 65.3% and 62.6%
- % Residual in liver microsome ([3]; 10 min): 0.0%
- % Residual in liver microsome ([3]; 20 min): 0.0%
- % Residual in liver microsome ([3]; 30 min): 0.0%
- % Residual in liver microsome Individual value ([3]; 10 minutes): 0.0%
- % Residual in liver microsome Individual value ([3]; 20 minutes): 0.0%
- % Residual in liver microsome Individual value ([3]; 30 minutes): 0.0%
- concentration at 24 h ([4]; 10 mg/kg, single oral BXM 10 mg/kg, 5% SDS water vehicle, mean of four ferrets): 28.6 ± 30.4 ng/mL
- concentration at 24 h ([4]; 10 mg/kg, single oral BXM 10 mg/kg, mean of four ferrets): 50.1 ± 53.3 nM
- concentration at 24 h ([4]; 30 mg/kg, single oral BXM 30 mg/kg, 5% SDS water vehicle, mean of four ferrets): 36.1 ± 12.3 ng/mL
- concentration at 24 h ([4]; 30 mg/kg, single oral BXM 30 mg/kg, mean of four ferrets): 63.1 ± 21.5 nM
- AUC(0-t) ([4]; 10 mg/kg, single oral BXM 10 mg/kg, 5% SDS water vehicle, mean of four ferrets, read-out: AUC0-24 h): 715 ± 758 ng·h/mL
- Cmax ([4]; 10 mg/kg, single oral BXM 10 mg/kg, 5% SDS water vehicle, mean of four ferrets, read-out: C max): 165 ± 179 ng/mL
- Tmax ([4]; 10 mg/kg, single oral BXM 10 mg/kg, 5% SDS water vehicle, mean of four ferrets, read-out: T max): 1.13 ± 0.63 h
- AUC(0-t) ([4]; 10 mg/kg, single oral BXM 10 mg/kg, mean of four ferrets, read-out: AUC0-24 h): 1.25 ± 1.33 µM·h
- Cmax ([4]; 10 mg/kg, single oral BXM 10 mg/kg, mean of four ferrets, read-out: C max): 289 ± 312 nM
- AUC(0-t) ([4]; 30 mg/kg, single oral BXM 30 mg/kg, 5% SDS water vehicle, mean of four ferrets, read-out: AUC0-24 h): 1260 ± 150 ng·h/mL
- Cmax ([4]; 30 mg/kg, single oral BXM 30 mg/kg, 5% SDS water vehicle, mean of four ferrets, read-out: C max): 298 ± 88 ng/mL
- Tmax ([4]; 30 mg/kg, single oral BXM 30 mg/kg, 5% SDS water vehicle, mean of four ferrets, read-out: T max): 0.875 ± 0.25 h
- AUC(0-t) ([4]; 30 mg/kg, single oral BXM 30 mg/kg, individual ferrets (Ferret-05 to Ferret-08), read-out: AUC0-24hr, individual data): 1450 ng·h/mL
- Cmax ([4]; 30 mg/kg, single oral BXM 30 mg/kg, individual ferrets (Ferret-05 to Ferret-08), read-out: Cmax, individual data): 392 ng/mL
- Tmax ([4]; 30 mg/kg, single oral BXM 30 mg/kg, individual ferrets (Ferret-05 to Ferret-08), read-out: Tmax, individual data): 1 h
- AUC(0-t) ([4]; 30 mg/kg, single oral BXM 30 mg/kg, mean of four ferrets, read-out: AUC0-24 h): 2.21 ± 0.25 µM·h
- Cmax ([4]; 30 mg/kg, single oral BXM 30 mg/kg, mean of four ferrets, read-out: C max): 522 ± 154 nM
- C 24 h ([4]; single oral BXM 10 mg/kg, 5% SDS water vehicle, mean of four ferrets): 28.6 ng/mL
- AUC0-24hr, individual data [4, 10]: 174 ng·h/mL and 539 ng·h/mL and 318 ng·h/mL and 1830 ng·h/mL
- C24hr, individual data [4, 10]: 3.59 ng/mL and 35.0 ng/mL and 6.75 ng/mL and 69.0 ng/mL
- Cmax, individual data [4, 10]: 101 ng/mL and 79.2 ng/mL and 48.6 ng/mL and 431 ng/mL
- Tmax, individual data [4, 10]: 0.500 h and 2.00 h
- C 24 h ([4]; single oral BXM 30 mg/kg, 5% SDS water vehicle, mean of four ferrets): 36.1 ng/mL
- AUC0-24hr, individual data [4, 11]: 1200 ng·h/mL and 1110 ng·h/mL and 1290 ng·h/mL
- C24hr, individual data [4, 11]: 22.7 ng/mL and 48.5 ng/mL and 28.7 ng/mL and 44.3 ng/mL
- Cmax, individual data [4, 11]: 353 ng/mL and 214 ng/mL and 233 ng/mL
- Tmax, individual data [4, 11]: 0.500 h
- % Residual in liver microsome ([5]; 10 min): 0.1%
- % Residual in liver microsome ([5]; 20 min): 0.1%
- % Residual in liver microsome ([5]; 30 min): 0.0%
- % Residual in liver microsome Individual value ([5]; 10 minutes): 0.1%
- % Residual in liver microsome Individual value ([5]; 20 minutes): 0.1%
- % Residual in liver microsome Individual value ([5]; 30 minutes): 0.0% and 0.1%
- % Residual in plasma (Stability in plasma, dog; 10 min): 91.6%
- % Residual in plasma (Stability in plasma, dog; 20 min): 79.7%
- % Residual in plasma (Stability in plasma, dog; 30 min): 75.6%
- % Residual in plasma Individual value (Stability in plasma, dog; 10 minutes): 97.0% and 86.3%
- % Residual in plasma Individual value (Stability in plasma, dog; 20 minutes): 79.0% and 80.5%
- % Residual in plasma Individual value (Stability in plasma, dog; 30 minutes): 74.9% and 76.3%
- stability in liver microsomes (in words) ([6]; ferret liver microsomes): stable
- % Residual in liver microsome ([6]; 10 min): 98.5%
- % Residual in liver microsome ([6]; 20 min): 98.1%
- % Residual in liver microsome ([6]; 30 min): 90.8%
- % Residual in liver microsome Individual value ([6]; 10 minutes): 97.0% and 99.9%
- % Residual in liver microsome Individual value ([6]; 20 minutes): 98.3% and 97.9%
- % Residual in liver microsome Individual value ([6]; 30 minutes): 87.4% and 94.2%
- % Residual in plasma ([7]; 10 min): 82.9%
- % Residual in plasma ([7]; 20 min): 71.8%
- % Residual in plasma ([7]; 30 min): 55.5%
- % Residual in plasma Individual value ([7]; 10 minutes): 81.5% and 84.4%
- % Residual in plasma Individual value ([7]; 20 minutes): 71.3% and 72.3%
- % Residual in plasma Individual value ([7]; 30 minutes): 56.3% and 54.7%
- CEN inhibitory activity, fold lower than that of BXA [8]: ≥ 200 fold
- % Residual in plasma (Stability in plasma, rat; 10 min): 0.0%
- % Residual in plasma (Stability in plasma, rat; 20 min): 0.0%
- % Residual in plasma (Stability in plasma, rat; 30 min): 0.0%
- % Residual in plasma Individual value (Stability in plasma, rat; 10 minutes): 0.0%
- % Residual in plasma Individual value (Stability in plasma, rat; 20 minutes): 0.0%
- % Residual in plasma Individual value (Stability in plasma, rat; 30 minutes): 0.0%
- % Residual in liver microsome ([9]; 10 min): 25.3%
- % Residual in liver microsome ([9]; 20 min): 4.6%
- % Residual in liver microsome ([9]; 30 min): 0.6%
- % Residual in liver microsome Individual value ([9]; 10 minutes): 25.3% and 25.2%
- % Residual in liver microsome Individual value ([9]; 20 minutes): 4.9% and 4.4%
- % Residual in liver microsome Individual value ([9]; 30 minutes): 0.7% and 0.5%
